pEC50, pKd: −log10 of the molar value. Read-outs that look alike come from different tables or passages of the source.
Experiments:
PPARγ [1] = conditions: endogenous ligand of PPARγ; cited from earlier work
PPARγ [2] = target: T1, PPARγ (Homo sapiens, UniProt P37231); conditions: for binding to immobilized PPARγ (SPR binding analysis): 50 μM and 100 μM analyte, 25 °C; for pKd: single cycle kinetics, heterogeneous ligand model
T1 sequence (P37231 1-505): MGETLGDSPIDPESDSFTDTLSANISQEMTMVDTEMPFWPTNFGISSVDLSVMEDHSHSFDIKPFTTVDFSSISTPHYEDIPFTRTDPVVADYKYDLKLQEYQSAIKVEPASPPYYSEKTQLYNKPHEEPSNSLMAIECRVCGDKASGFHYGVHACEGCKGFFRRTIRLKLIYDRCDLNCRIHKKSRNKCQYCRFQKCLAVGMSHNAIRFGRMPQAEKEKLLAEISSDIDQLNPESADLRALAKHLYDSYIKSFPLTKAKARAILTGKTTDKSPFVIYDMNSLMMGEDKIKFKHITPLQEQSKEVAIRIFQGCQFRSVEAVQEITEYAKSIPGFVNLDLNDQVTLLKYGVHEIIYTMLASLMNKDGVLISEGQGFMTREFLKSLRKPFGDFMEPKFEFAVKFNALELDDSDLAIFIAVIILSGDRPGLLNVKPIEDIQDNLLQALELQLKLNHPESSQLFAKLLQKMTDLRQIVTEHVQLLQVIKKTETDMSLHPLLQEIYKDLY

Compound | pEC50 (PPARγ [1]) | binding to immobilized PPARγ (SPR binding analysis) (PPARγ [2]) | pKd (PPARγ [2]; read-out: Kd1) | pKd (PPARγ [2]; read-out: Kd2)
CCCCC/C=C/C=C1/C(=O)C=C[C@@H]1C/C=C\CCCC(=O)O [15Δ-PGJ2, 15-deoxy-delta-12,14-prostaglandin J2] | 5.70 | direct binding | 5.00 | 3.51
CCCCC(CC)COC(=O)c1ccccc1C(=O)OCC(CC)CCCC (centres unmarked) [DEHP, di-(2-ethylhexyl)phthalate] |  | almost no detectable binding |  | 

— PMC6367069 (Rapid communications in mass spectrometry : RCM, 2019)
